Results taken from patent publication US20250057808A1, “COMPOSITION COMPRISING BETA LACTAM FOR TREATING ALCOHOL DEPENDENCE AND ALCOHOL ASSOCIATED DISEASES OR CONDITIONS” (Temple University of the Commonwealth System of Higher …, priority 2023, published 2025).
Entries after “also recorded” stand apart in the source; their conditions may differ.

Key:
[1] = test system: xCT; experiment: Immunoblot xCT in mPFC-IL, mPFC-PL, NAc-core, NAc-shell (section B); format: in vivo, Male and female alcohol-preferring (P) rats; details: 100 mg/kg i.p. 5 days
Experimental: After 24 hours of receiving the last injection, rats were euthanized by CO2 inhalation followed by decapitation with a guillotine. Brains were harvested and immediately frozen on dry ice and stored at −80° C. Cryostat (Leica) was used to isolate the mPFC subregions (mPFC-IL and mPFC-PL), and subregions of the NAc (NAc-core and NAc-shell). Brains were micro-punctured using the stereotaxic coordinates following the Rat Brain Atlas. The isolated brain regions were stored at −80° C. for subsequent protein detection using Western Blot assay.
Immunoblot assays were performed to determine the expression of GLT-1, xCT and β-tubulin in mPFC-IL, mPFC-PL, NAc-core, and NAc-shell of all groups as described previously. Briefly, brain samples were homogenized in lysis buffer supplemented with protease inhibitor and total protein was quantified using protein assay (Bio-Rad, Hercules, CA, USA). Equal amount of the samples was loaded on polyacrylamide gel (10-20%).
Subsequently, proteins were transferred on a PVDF membrane and blocked with 5% milk in Tris-buffered saline Tween-20 (1×TBST) for 30 minutes at room temperature. Membranes were then incubated overnight at 4° C. with one of the following antibodies: rabbit anti-GLT-1 (1:1000, Abcam, AB41621), and/or rabbit anti-xCT (1:1000, Abcam, AB175186). Mouse anti-β-tubulin (1:1000; Cell Signaling D71G5) was used as a loading control antibody. On the following day, membranes were washed five times with 1×TBST followed by incubation with appropriate secondary antibody (1:4000) for 60 minutes at room temperature. Chemiluminescent reagents (Super Signal West Pico, Pierce Inc.) were used to detect proteins using a ChemiDoc imaging system (BioRad, USA).
GLT-1 and xCT expression were normalized against β-tubulin, a control loading protein. Imaging System and ImageJ software version 1.53a were used to quantify and analyze the expression of GLT-1 and xCT in the subregions of the mPFC and NAc. Data from water-control group were represented as 100% and all other values were expressed relative to this control to evaluate the changes in protein expression.
The ratios for treated animals in the ethanol/saline and ethanol/MC-100093 groups were normalized to the mean ratios for the control group (water/saline group). The control ratio was set at 100, and the results from each of the treated groups were expressed as a percentage relative to the water/saline group value of 100%. We normalized the ethanol/saline and ethanol/MC-100093 groups data to water/saline group to reduce any differences of contrast with Western blots for each set of groups (control/water/saline, ethanol/saline, and ethanol/MC-100093 groups).
All statistical analyses were conducted using GraphPad Prism (10). Two-way (mixed) ANOVA followed by Bonferroni multiple comparison post-hoc test was performed to analyze daily ethanol intake, average daily water intake and body weight. One-way ANOVA followed by Newman-Keuls post hoc tests were used to analyze Western blot data. All statistical analyses data were reported as a p<0.05 of significance.

[2] = test system: GLT-1; experiment: GLT-1 expression in mPFC subregions IL and PL (further studies, 100 mg/kg); format: in vivo, Male P rats; details: MC-100093 100 mg/kg i.p. 5 days
Experimental: We used micro-punch procedure to dissect the subregions of the NAc such as NAc-core and NAc-shell as well as the subregions of prefrontal cortex such as infralimbic (IL) and prelimbic (PL) from the brain on day 6 after the last injection day. P rats were removed from the cage and rapidly euthanized by CO2 inhalation followed by rapid decapitation with a guillotine. Brains were isolated and immediately frozen on dry ice and stored at −80° C. The stereotaxic coordinates provided by Paxinos and colleague's rat brain stereotactic atlas was used to isolate NAc-core and NAc-shell using a cryostat apparatus (−20° C.), which then kept at −80° C. for later western blot analyses.
Western Blot assay was performed to measure changes in the expression of GLT-1, xCT, mGluR1, mGluR5, PPAR-α, PPARγ, GAPDH and β-tubulin in the NAc-core and NAc-shell as described in previous publications. A lysis buffer containing protease and phosphatase inhibitors was used to generate a homogenate of liver, Nac-core, and Nac-shell samples. The amount of protein was quantified using a detergent compatible protein assay (Bio-Rad, Hercules, CA, USA) for each sample. Samples were mixed with laemmli dye and loaded with equal amounts on polyacrylamide gels (10%), which separated the proteins using electrophoresis. […]

[3] = female P rats, vs ethanol-saline and water-saline

C[C@@H](O)[C@H]1C(=O)N[C@@H]1[C@@H](C)C(=O)N1CCN(C)CC1 [MC-100093] was tested, and the “xCT expression in the NAc-core” value [1, 3] was “significant upregulation of xCT expression”, the “xCT expression in the NAc-shell” value [1, 3] was “significant upregulation in the expression of xCT” and the “xCT expression in the mPFC-IL” value [1, 3] was “significant upregulation in the expression of xCT”. The “xCT expression in the mPFC-PL” value [1, 3] was “significant upregulation of the expression of xCT”, the “xCT expression in mPFC and NAc subregions (summary)” value ([1]; female and male P rats, vs ethanol-saline groups, 100 mg/kg) was “upregulated GLT-1 and xCT expression in mPFC and NAc subregions; also recorded: upregulated xCT expression in both the NAc and the mPFC subregions in male and female P rats; also recorded: increasing GLT-1 and xCT expression in the mPFC and NAc subregions” and the “xCT expression in the NAc-core” value ([1]; male P rats) was “significantly increased the expression of xCT”. For the same molecule, the “xCT expression in the NAc-shell” value ([1]; male P rats) was “increased the expression of xCT”, the “xCT expression in the mPFC-IL” value ([1]; male P rats) was “significantly increased the expression of xCT” and the “xCT expression in the mPFC-PL” value ([1]; male P rats) was “significantly increased the expression of xCT”. For the same molecule, the “GLT-1 expression in the prelimbic frontal cortex (PL)” value ([2]; vs control/saline and ethanol/saline) was “increased GLT-1 expression in both subregions of mPFC; also recorded: non-statistically significant increase of GLT-1 expression; also recorded: upregulated the expression of GLT-1” and the “GLT-1 expression in the infralimbic prefrontal cortex (IL)” value ([2]; vs ethanol/saline) was “increased GLT-1 expression in both subregions of mPFC; also recorded: significantly higher levels of GLT-1 expression; also recorded: increased the expression of GLT-1; also recorded: upregulated GLT-1 expression”.
